Where “and” joins values, the source holds several entries; their conditions need not be identical. Equal entries are not always repeated. Calls of active or inactive are those of the source. How the source made its calls: active means viability on the fitted dose curve at most 10% of control; inactive means the rest.
Tested on: NCI-H719 tumor spheroids, viability
Experiment: Anticancer human tumor NCI-H719 cell line growth inhibition;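 on IC50: spheroids exposed to compounds for seven days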;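 on viability, T/C: spheroids exposed to compounds for seven days; percent viability relative to DMSO vehicle control as 100%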
Details: spheroids with HUVEC and MSC; for viability, T/C: stronger effect = lower value
Outline: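 Complex tumor spheroids combined malignant cells with endothelial cells and mesenchymal stem cells. DNA-damaging drugs and DNA repair inhibitors were tested alone and in combination, at half-log dilutions down from clinical Cmax (top 10 microM if Cmax unknown), 0.25% DMSO final.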

COc1cc(C)[nH]c(=O)c1CN1CCc2c(Cl)cc(C(OC)C3COC3)c(Cl)c2C1=O (stereo unspecified) + Cn1nnc2c(C(N)=O)ncn2c1=O
IC50 (curve of first compound, second compound 1 µM): > 10 µM | IC50 (curve of first compound, second compound 3.16 µM): > 10 µM | IC50 (curve of first compound, second compound 10 µM): > 10 µM | IC50 (curve of first compound, second compound 31.6 µM): > 10 µM | IC50 (curve of first compound, second compound 100 µM): > 10 µM | viability, T/C (second compound 1 µM, first compound 0.0316 µM): 101% | viability, T/C (second compound 1 µM, first compound 0.1 µM): 101% | outcome (second compound 1 µM, first compound 0.316 µM): inactive | viability, T/C (second compound 1 µM, first compound 1 µM): 111% | viability, T/C (second compound 1 µM, first compound 3.16 µM): 108% | viability, T/C (second compound 1 µM, first compound 10 µM): 103% | viability, T/C (second compound 3.16 µM, first compound 0.0316 µM): 103% | viability, T/C (second compound 3.16 µM, first compound 0.1 µM): 108% | viability, T/C (second compound 3.16 µM, first compound 0.316 µM): 119% | viability, T/C (second compound 3.16 µM, first compound 1 µM): 117% | viability, T/C (second compound 3.16 µM, first compound 3.16 µM): 112% | viability, T/C (second compound 3.16 µM, first compound 10 µM): 110% | viability, T/C (second compound 10 µM, first compound 0.0316 µM): 110% | viability, T/C (second compound 10 µM, first compound 0.1 µM): 110% | viability, T/C (second compound 10 µM, first compound 0.316 µM): 122% | viability, T/C (second compound 10 µM, first compound 1 µM): 121% | viability, T/C (second compound 10 µM, first compound 3.16 µM): 125% | viability, T/C (second compound 10 µM, first compound 10 µM): 118% | viability, T/C (second compound 31.6 µM, first compound 0.0316 µM): 118% | viability, T/C (second compound 31.6 µM, first compound 0.1 µM): 111% | viability, T/C (second compound 31.6 µM, first compound 0.316 µM): 111% | viability, T/C (second compound 31.6 µM, first compound 1 µM): 125% | viability, T/C (second compound 31.6 µM, first compound 3.16 µM): 118% | viability, T/C (second compound 31.6 µM, first compound 10 µM): 119% | viability, T/C (second compound 100 µM, first compound 0.0316 µM): 109% | viability, T/C (second compound 100 µM, first compound 0.1 µM): 101% | viability, T/C (second compound 100 µM, first compound 0.316 µM): 99.7% | viability, T/C (second compound 100 µM, first compound 1 µM): 109% | viability, T/C (second compound 100 µM, first compound 3.16 µM): 115% | viability, T/C (second compound 100 µM, first compound 10 µM): 109%

O=C(c1cc(Cc2n[nH]c(=O)c3ccccc23)ccc1F)N1CCN(C(=O)C2CC2)CC1
viability, T/C (compound 0.0949 µM): 90.1% and 105% and 85.6% | viability, T/C (compound 0.3 µM): 61.4% and 93.6% and 95.1% | viability, T/C (compound 0.949 µM): 71.1% and 82% and 81.4% | viability, T/C (compound 3 µM): 51.2% and 34.2% and 52.1% | viability, T/C (compound 9.49 µM): 30.8% and 7.1% and 16.9% | IC50 (curve of compound): 3.09 µM and 2.03 µM and 3.15 µM

CC(C)n1c(=O)n(C)c2cnc3cc(F)c(-c4ccc(OCCCN5CCCCC5)nc4)cc3c21 + COc1cc2c(cc1O)CCNC21CSC2c3c(OC(C)=O)c(C)c4c(c3C(COC1=O)N1C(O)C3Cc5cc(C)c(OC)c(O)c5C(C21)N3C)OCO4
IC50 (curve of first compound, second compound 30 pM): > 10 µM | IC50 (curve of first compound, second compound 94.9 pM): < 0.0316 µM | IC50 (curve of first compound, second compound 0.0003 µM): < 0.0316 µM | IC50 (curve of first compound, second compound 0.000949 µM): < 0.0316 µM | IC50 (curve of first compound, second compound 0.003 µM): < 0.0316 µM | viability, T/C (second compound 30 pM, first compound 0.0316 µM): 90.9% | viability, T/C (second compound 30 pM, first compound 0.1 µM): 86.2% | viability, T/C (second compound 30 pM, first compound 0.316 µM): 85.7% | viability, T/C (second compound 30 pM, first compound 1 µM): 71.2% | viability, T/C (second compound 30 pM, first compound 3.16 µM): 74.3% | viability, T/C (second compound 30 pM, first compound 10 µM): 98.8% | viability, T/C (second compound 94.9 pM, first compound 0.0316 µM): 40.8% | viability, T/C (second compound 94.9 pM, first compound 0.1 µM): 60.5% | viability, T/C (second compound 94.9 pM, first compound 0.316 µM): 45.5% | viability, T/C (second compound 94.9 pM, first compound 1 µM): 47.9% | viability, T/C (second compound 94.9 pM, first compound 3.16 µM): 36.5% | viability, T/C (second compound 94.9 pM, first compound 10 µM): 43.7% | viability, T/C (second compound 0.0003 µM, first compound 0.0316 µM): 30.1% | viability, T/C (second compound 0.0003 µM, first compound 0.1 µM): 5.76% | viability, T/C (second compound 0.0003 µM, first compound 0.316 µM): 27.8% | viability, T/C (second compound 0.0003 µM, first compound 1 µM): 8.34% | viability, T/C (second compound 0.0003 µM, first compound 3.16 µM): 8.82% | viability, T/C (second compound 0.0003 µM, first compound 10 µM): 5.34% | viability, T/C (second compound 0.000949 µM, first compound 0.0316 µM): 6.42% | viability, T/C (second compound 0.000949 µM, first compound 0.1 µM): 7.84% | viability, T/C (second compound 0.000949 µM, first compound 0.316 µM): 6.99% | viability, T/C (second compound 0.000949 µM, first compound 1 µM): 6.68% | viability, T/C (second compound 0.000949 µM, first compound 3.16 µM): 5.62% | viability, T/C (second compound 0.000949 µM, first compound 10 µM): 4.34% | viability, T/C (second compound 0.003 µM, first compound 0.0316 µM): 0.61% | viability, T/C (second compound 0.003 µM, first compound 0.1 µM): 1.06% | viability, T/C (second compound 0.003 µM, first compound 0.316 µM): 0.76% | viability, T/C (second compound 0.003 µM, first compound 1 µM): 0.52% | viability, T/C (second compound 0.003 µM, first compound 3.16 µM): 0.99% | viability, T/C (second compound 0.003 µM, first compound 10 µM): 0.68%

— PubChem BioAssay AID1845212 (Molecular Pharmacology Branch, DTP, NCI, 2023)
